According to patent EP3509566B1, “COMPOUNDS FOR REDUCING CELLULAR MELANIN CONTENT” (Unilever N.V., priority 2016, dated 2018):
Where two headings read alike, the source gives them in different places.

How the values were obtained:
[1] = tested on: Neonatal foreskin primary human epidermal melanocytes; test: Cell viability assay (calcein method); assay type: cell-based; conditions: 72 hours
Experimental: (§1) A set of indolyl compounds were purchased from SIGMA-ALDRICH as stocks of 10 mM in 100% DMSO. They were initially examined at 25 uM concentration in cell culture (Table 1) for their ability to reduce melanin content and then, at different doses (Table 2). Neonatal foreskin primary human epidermal melanocytes was sourced from Cascade Biologicals (labelled passage P0). Melanocytes were maintained in Medium 254CF (Cascade Cat. # M-254CF-500) supplemented with human melanocyte growth supplement (Cascade; Cat. # S-002-5), hereafter referred to as MGM. Cells were maintained at 37 °C in a humidified incubator with 5 % CO2 atmosphere. 50,000 cells were seeded in 24 well plate in MGM. After 24 hours, the cultures were treated with various concentrations of test materials and were left undisturbed for a further period of 72 hours. Comparative vehicle controls of 0.25 % (v/v) DMSO were also set up in parallel, simultaneously. At the end of the incubation period, the cell viability was determined using the calcein method. Briefly, cell culture spent media was removed and cells washed once with 0.4 ml of 1x PBS-Ca-Mg solution. […] Plates were covered with aluminium foil and incubated for 30 minutes at 37 °C in the regular CO2 incubator. […] Percentage Melanin content was calculated as the ratio between OD405nm value of any sample to that of DMSO reference sample.

[2] = Cell viability assay (calcein method); assay type: cell-based, human; conditions: human, epidermal melanocytes
Experimental: as §1

[3] = tested on: Neonatal foreskin primary human epidermal melanocytes; test: Melanin content assay (OD405nm of cell lysate); assay type: cell-based
Experimental: A set of indolyl compounds were purchased from SIGMA-ALDRICH as stocks of 10 mM in 100% DMSO. They were initially examined at 25 uM concentration in cell culture (Table 1) for their ability to reduce melanin content and then, at different doses (Table 2). Neonatal foreskin primary human epidermal melanocytes was sourced from Cascade Biologicals (labelled passage P0). Melanocytes were maintained in Medium 254CF (Cascade Cat. # M-254CF-500) supplemented with human melanocyte growth supplement (Cascade; Cat. # S-002-5), hereafter referred to as MGM. Cells were maintained at 37 °C in a humidified incubator with 5 % CO2 atmosphere. 50,000 cells were seeded in 24 well plate in MGM. After 24 hours, the cultures were treated with various concentrations of test materials and were left undisturbed for a further period of 72 hours. Comparative vehicle controls of 0.25 % (v/v) DMSO were also set up in parallel, simultaneously. At the end of the incubation period, the cell viability was determined using the calcein method. […] Cells were lysed by resuspension and incubation (60 °C/one hour.). Then this lysate was transferred to a fresh 384-well plate and measured OD405nm in a TECAN M1000 plate reader (estimate of relative melanin content). […] Percentage Melanin content was calculated as the ratio between OD405nm value of any sample to that of DMSO reference sample.

[4] = 25 µM, 72 hours, Table 1, 100 = 0.25% DMSO, read-out: % Viability
[5] = Homo sapiens, Melanocyte, 72 h, 25 µM, 72 hours, Table 1, normalized melanin content, read-out: 100* (%Melanin/% Viability)
[6] = Homo sapiens, Melanocyte, 72 h, 25 µM, 72 hours, Table 1, read-out: % reduction in Melanin
[7] = Homo sapiens, Melanocyte, 72 h, 25 µM, 72 hours, Table 1, relative to DMSO, read-out: % Melanin
[8] = 25 µM, 72 hours, Table 2, fresh batch
[9] = Homo sapiens, Melanocyte, 72 h, 25 µM, 72 hours, Table 2, fresh batch, read-out: 100* (% Melanin/%Viability)
[10] = Homo sapiens, Melanocyte, 72 h, 25 µM, 72 hours, Table 2, fresh batch, read-out: % Melanin
[11] = Homo sapiens, Melanocyte, 72 h, 25 µM, 72 hours, Table 2, fresh batch, read-out: % reduction in Melanin
[12] = 3.125 µM, 72 hours, Table 2, fresh batch
[13] = 6.25 µM, 72 hours, Table 2, fresh batch
[14] = 12.5 µM, 72 hours, Table 2, fresh batch
[15] = 50 µM, 72 hours, Table 2, fresh batch

SMILES: CC(=O)NC(C)Cc1c[nH]c2ccccc12 (stereo not shown) [Compound #2, N-[2-(1H-indol-3-yl)-1-methylethyl]acetamide, reference compound]
- Calcein Fluorescence ([1]; 25 µM, Table 1): 98 arbitrary unit
- viability at 72 h, 25 µM [2, 4]: 98%
- OD405nm (Melanin) ([3]; 25 µM, 72 hours, Table 1): 0.108
- melanin reduction (in words) ([3]; 25 µM, Table 1): comparatively insignificant
- activity at 25 µM [3, 5]: 98%
- inhibition at 25 µM [3, 6]: 2%
- activity at 25 µM [3, 7]: 96%

SMILES: O=c1cc(CO)occ1O [Kojic acid, reference compound]
- viability at 72 h, 25 µM ([2]; % Viability): 102%
- viability at 72 h, 250 µM ([2]; % Viability): 96%
- viability at 72 h, 500 µM ([2]; % Viability): 96%
- OD405nm (Melanin) [3, 8]: 0.177
- OD405nm (Melanin) ([3]; 250 µM, 72 hours, Table 2, fresh batch): 0.152
- OD405nm (Melanin) ([3]; 500 µM, 72 hours, Table 2, fresh batch): 0.139
- activity at 25 µM [3, 9]: 99.3%
- activity at 25 µM [3, 10]: 101%
- inhibition at 25 µM [3, 11]: 0.7%
- activity at 250 µM ([3]; Homo sapiens, Melanocyte, 72 h, 250 µM, 72 hours, Table 2, fresh batch, read-out: 100* (% Melanin/%Viability)): 90.4%
- activity at 250 µM ([3]; Homo sapiens, Melanocyte, 72 h, 250 µM, 72 hours, Table 2, fresh batch, read-out: % Melanin): 87%
- inhibition at 250 µM ([3]; Homo sapiens, Melanocyte, 72 h, 250 µM, 72 hours, Table 2, fresh batch, read-out: % reduction in Melanin): 9.6%
- activity at 500 µM ([3]; Homo sapiens, Melanocyte, 72 h, 500 µM, 72 hours, Table 2, fresh batch, read-out: 100* (% Melanin/%Viability)): 83.3%
- activity at 500 µM ([3]; Homo sapiens, Melanocyte, 72 h, 500 µM, 72 hours, Table 2, fresh batch, read-out: % Melanin): 80%
- inhibition at 500 µM ([3]; Homo sapiens, Melanocyte, 72 h, 500 µM, 72 hours, Table 2, fresh batch, read-out: % reduction in Melanin): 16.7%

SMILES: CC(Cc1c[nH]c2ccccc12)NC(=O)OCCCl (stereo not shown) [Compound #1, 2-chloroethyl [2-(1H-indol-3-yl)-1-methylethyl] carbamate]
- Calcein Fluorescence ([1]; 3.125 µM, Table 2, fresh batch): 94 arbitrary units
- Calcein Fluorescence ([1]; 6.25 µM, Table 2, fresh batch): 96.6 arbitrary units
- Calcein Fluorescence ([1]; 12.5 µM, Table 2, fresh batch): 93.4 arbitrary units
- Calcein Fluorescence ([1]; 25 µM, Table 1): 95 arbitrary unit
- Calcein Fluorescence ([1]; 25 µM, Table 2, fresh batch of melanocytes): 93.7 arbitrary units
- Calcein Fluorescence ([1]; 50 µM, Table 2, fresh batch): 88.3 arbitrary units
- viability at 72 h, 3.125 µM [2, 12]: 94%
- viability at 72 h, 6.25 µM [2, 13]: 96.6%
- viability at 72 h, 12.5 µM [2, 14]: 93.4%
- viability at 72 h, 25 µM [2, 4]: 95%
- viability at 72 h, 25 µM ([2]; 25 µM, 72 hours, Table 2, fresh batch, read-out: % Viability): 93.7%
- viability at 72 h, 50 µM [2, 15]: 88.3%
- % reduction in Melanin [3, 12]: Nil
- OD405nm (Melanin) [3, 12]: 0.168
- OD405nm (Melanin) [3, 13]: 0.146
- OD405nm (Melanin) [3, 14]: 0.134
- OD405nm (Melanin) ([3]; 25 µM, 72 hours, Table 1): 0.093
- OD405nm (Melanin) [3, 8]: 0.122
- melanin reduction (in words) ([3]; 25 µM, Table 1): significant melanin reduction
- OD405nm (Melanin) [3, 15]: 0.103
- activity at 3.125 µM ([3]; Homo sapiens, Melanocyte, 72 h, 3.125 µM, 72 hours, Table 2, fresh batch, read-out: 100* (% Melanin/%Viability)): 102%
- activity at 3.125 µM ([3]; Homo sapiens, Melanocyte, 72 h, 3.125 µM, 72 hours, Table 2, fresh batch, read-out: % Melanin): 96%
- activity at 6.25 µM ([3]; Homo sapiens, Melanocyte, 72 h, 6.25 µM, 72 hours, Table 2, fresh batch, read-out: 100* (% Melanin/%Viability)): 85.9%
- activity at 6.25 µM ([3]; Homo sapiens, Melanocyte, 72 h, 6.25 µM, 72 hours, Table 2, fresh batch, read-out: % Melanin): 83%
- inhibition at 6.25 µM ([3]; Homo sapiens, Melanocyte, 72 h, 6.25 µM, 72 hours, Table 2, fresh batch, read-out: % reduction in Melanin): 14.1%
- activity at 12.5 µM ([3]; Homo sapiens, Melanocyte, 72 h, 12.5 µM, 72 hours, Table 2, fresh batch, read-out: 100* (% Melanin/%Viability)): 82.4%
- activity at 12.5 µM ([3]; Homo sapiens, Melanocyte, 72 h, 12.5 µM, 72 hours, Table 2, fresh batch, read-out: % Melanin): 77%
- inhibition at 12.5 µM ([3]; Homo sapiens, Melanocyte, 72 h, 12.5 µM, 72 hours, Table 2, fresh batch, read-out: % reduction in Melanin): 17.6%
- activity at 25 µM [3, 5]: 87%
- inhibition at 25 µM [3, 6]: 13%
- activity at 25 µM [3, 7]: 83%
- activity at 25 µM [3, 9]: 74.7%
- activity at 25 µM [3, 10]: 70%
- inhibition at 25 µM [3, 11]: 25.3%
- activity at 50 µM ([3]; Homo sapiens, Melanocyte, 72 h, 50 µM, 72 hours, Table 2, fresh batch, read-out: 100* (% Melanin/%Viability)): 66.8%
- activity at 50 µM ([3]; Homo sapiens, Melanocyte, 72 h, 50 µM, 72 hours, Table 2, fresh batch, read-out: % Melanin): 59%
- inhibition at 50 µM ([3]; Homo sapiens, Melanocyte, 72 h, 50 µM, 72 hours, Table 2, fresh batch, read-out: % reduction in Melanin): 33.2%
- efficacy compared to Kojic acid (in words) ([3]; various doses, Table 2): more efficacious at concentrations much lower than Kojic acid

SMILES: CC(=O)O.CC(Cc1c[nH]c2ccccc12)NC(=O)CN (stereo not shown) [Compound #3, 2-amino-N-[2-(1H-indol-3-yl)-1-methylethyl]acetamide acetate]
- Calcein Fluorescence ([1]; 25 µM, Table 1): 111 arbitrary unit
- viability at 72 h, 25 µM [2, 4]: 111%
- OD405nm (Melanin) ([3]; 25 µM, 72 hours, Table 1): 0.111
- melanin reduction (in words) ([3]; 25 µM, Table 1): significant melanin reduction
- activity at 25 µM [3, 5]: 89%
- inhibition at 25 µM [3, 6]: 11%
- activity at 25 µM [3, 7]: 99%
